Measured values from PubChem BioAssay (NCI).
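Values below derive from 48-hour exposures of cells grown in 96-well plates, with endpoints linearly interpolated between the two concentrations bracketing the appropriate inhibition level. GI50 = concentration required for 50% inhibition of growth. Definition used: TGI = concentration required for complete inhibition of growth.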

How the values were obtained:
Assay in all cases: inhibition of tumour cell growth, NCI panel, 48 h
HS 578T breast = system: HS 578T breast
LOX IMVI melanoma = system: LOX IMVI melanoma
MCF7 breast = system: MCF7 breast
MDA-MB-231 breast = system: MDA-MB-231 breast
OVCAR-4 ovarian = system: OVCAR-4 ovarian
SW-620 colon = system: SW-620 colon
T-47D breast = system: T-47D breast

Row | SMILES | GI50 (HS 578T breast) [µM] | TGI (HS 578T breast) [µM] | GI50 (LOX IMVI melanoma) [µM] | TGI (LOX IMVI melanoma) [µM] | GI50 (MCF7 breast) [µM] | TGI (MCF7 breast) [µM] | GI50 (MDA-MB-231 breast) [µM] | TGI (MDA-MB-231 breast) [µM] | GI50 (OVCAR-4 ovarian) [µM] | TGI (OVCAR-4 ovarian) [µM] | GI50 (SW-620 colon) [µM] | TGI (SW-620 colon) [µM] | GI50 (T-47D breast) [µM] | TGI (T-47D breast) [µM]
1 | Cn1cc(-c2ccc(=O)n(Cc3cccc(-c4ncc(OCCN5CCOCC5)cn4)c3)n2)cn1 | > 100 | > 100 | > 100 | > 100 | 39.5 | > 100 | > 78 | > 100 | 33.5 | > 100 | > 100 | > 100 | 20.9 | > 81.5
2 | CC1(C)N=C(N)N=C(N)N1c1cccc(/C=C/C=C/c2cccc([N+](=O)[O-])c2)c1 | 12.9 | 34.7 | 5.02 | 19.2 | 5.57 | 22.4 | 10.3 | 24.4 | 5.54 | 22.5 | 2.56 | 18.8 | – | –
3 | Nc1nc(N)[n+]([O-])c(N)c1NCO | – | > 100 | – | > 100 | – | > 100 | – | > 100 | – | > 100 | – | > 100 | – | > 100
4 | CCCCCCCCCCCCCCCCCCNC(=O)[C@H]1CSC(c2ccc(OC)c(F)c2)N1 (some centres not stated) | 4.29 | 20.3 | 2.68 | 15.8 | 0.386 | 1.4 | 1.9 | 5.16 | 14 | > 41.3 | 1.5 | 5.71 | 2.21 | 6.57
5 | O=[N+]([O-])c1ccc(N/N=C\c2cc(Cl)ccc2O)nc1 | 7.33 | > 100 | 0.457 | 8.47 | 2.73 | > 100 | 3.88 | 33.1 | 1.72 | 13.7 | 0.873 | > 100 | 2.86 | > 100
6 | ClC(=Nc1cccc2ccccc12)N(c1ccccc1)c1ccccc1 | – | > 100 | – | > 100 | – | > 100 | – | > 100 | – | > 100 | – | > 100 | – | > 100
7 | Nc1ccn(C=C=CCO)c(=O)n1 | > 1000 | > 1000 | > 1000 | > 1000 | > 1000 | > 1000 | > 1000 | > 1000 | > 1000 | > 1000 | > 1000 | > 1000 | > 1000 | > 1000
8 | CC(=O)c1ccc(Nc2cc(-n3ccnc3)nc3ccccc23)cc1 | 33.4 | > 100 | – | – | 36 | > 100 | 3.64 | 18.1 | > 100 | > 100 | 49.1 | > 100 | > 100 | > 100
9 | O=C1/C(=C\c2ccc(Cl)cc2)CN(C(=S)Nc2ccccc2)C/C1=C\c1ccc(Cl)cc1 | 3 | 23.3 | 0.203 | 0.432 | 0.292 | 1.15 | 0.735 | 5.44 | 0.343 | 2.77 | 0.298 | 1.04 | 1.1 | 3.61
10 | CCOC(=O)c1cnc(SCc2ccc(Cl)c(Cl)c2)nc1N1CC1 | 2.31 | 7.01 | 1 | 5.73 | 1.27 | 11.4 | 6.12 | 27.2 | 3.17 | 14 | 1.74 | 13.8 | 3.15 | 19.5
11 | O/N=C1\CCc2cc(-c3nc(C4CCNCC4)[nH]c3-c3ccncc3)ccc21 | > 25 | > 25 | > 25 | > 25 | > 25 | > 25 | > 25 | > 25 | > 25 | > 25 | > 25 | > 25 | > 25 | > 25
12 | O=C(CCCc1c[nH]c2ccccc12)NC1CC(=O)c2c(Br)sc(Br)c21 (configuration not stated) | 6.44 | 51.3 | 1.9 | 3.75 | 10.1 | 29.5 | 16.5 | 32.1 | 12.8 | 25.9 | 18.8 | 41 | 26.5 | > 100
13 | Cc1ccc(-c2c(C#N)c(N)nc(N3CCOCC3)c2C#N)o1 | 39.2 | > 100 | – | – | 64.9 | > 100 | 21 | 80.7 | 55.5 | > 100 | > 100 | > 100 | – | –
14 | N#C/C(=C\c1c(-c2ccccc2)[nH]c2ccccc12)C(=O)c1ccc(Cl)cc1 | 1.56 | 9.27 | 4.76 | > 100 | 0.753 | 14.5 | 4.09 | 47.8 | 3.68 | 22.8 | 0.554 | > 100 | 2.89 | 18.4
15 | COc1cc2c3c(n(C)c(=O)c2cc1OC)-c1cc2c(cc1/C3=C\CCCCN)OCO2 | – | – | 12.9 | 41.1 | 3.46 | 12.7 | 2.94 | 11.4 | 17.2 | 57.3 | 6.36 | 24.8 | 37.7 | > 100
16 | Cc1ccc2c(c1)NC(c1ccc(C(=O)O)cc1)c1cccn1-2 (configuration not stated) | – | – | – | > 100 | – | > 100 | – | > 100 | – | 64 | – | > 100 | – | 49.2
17 | COc1cc2c(cc1OC)C(=O)C(Br)CC2 (configuration not stated) | 7.48 | 37.4 | 1.74 | 3.34 | 3.13 | 13.7 | 3.56 | 13.4 | – | – | 2.71 | 6.39 | 2.25 | 5.06
18 | O=S(=O)(c1ccc(NC(=S)N/N=C/c2ccccc2O)cc1)N1CCCCC1 | – | 40.5 | – | 0.109 | – | – | – | > 44.5 | – | > 71.4 | – | 21 | – | > 52.8
19 | COc1ccc(/C(=C/c2cc(OC)c(OC)c(OC)c2)[N+](=O)[O-])cc1 | 3.21 | 21.4 | 1.62 | 3.07 | – | – | 1.47 | 3.28 | 1.63 | 3.29 | 1.71 | 3.91 | 1.65 | 10.3
